Laboratory results from article PMC12566046, “Arylpiperazinyl-Benzocycloheptapyrrole-Carboxamides Endowed with Dual Anticancer and Antiviral Activities” (Molecules, 2025).
Where two headings read alike, the source gives them in different places.

Assays:
[1] = test system: SARS-CoV-2 VR PV10734 (strain Milano); test: microbe, parasite or virus in culture; format: cell-based; details: for selectivity index (SI): CC50/EC50
in vitro = details: African green monkey
[2] = test system: HL-60(TB) (leukemia cell line); test: NCI-60 single-dose assay; format: cell-based, human; details: for inhibition at 10 µM: Homo sapiens, HL-60, read-out: growth inhibition (GI%) and cytotoxicity (negative values)
Excerpt: (§1) We first evaluated the cytotoxic activity of tricyclic-pyrrole carboxamides 1–20 using the NCI-60 cell line panel, representing nine different human cancers: leukemia, melanoma, and cancers of the lung, colon, central nervous system (CNS), ovary, kidney, prostate, and breast (the one-dose graph for compounds 1–20 is reported in Supplementary Materials, Figures S43–S62). Compounds 1, 5, 10, 11, 17, and 20 satisfied pre-determined threshold inhibition criteria in a minimum number of cell lines; therefore, they were also tested in the full five-dose assay (Figures S63–S68 in the Supplementary Materials).

[3] = test system: SK-MEL-28 (melanoma cell line); test: NCI-60 single-dose assay; format: cell-based, human; details: Homo sapiens, SK-MEL-28, read-out: growth inhibition (GI%) and cytotoxicity (negative values)
Excerpt: as §1

[4] = test system: BT-549 (breast cancer cell line); test: NCI-60 single-dose assay; format: cell-based, human; details: for inhibition at 10 µM: Homo sapiens, BT-549, read-out: growth inhibition (GI%) and cytotoxicity (negative values)
Excerpt: as §1

M14 (melanoma cell line) = test: NCI-60 single-dose assay; format: cell-based, human; details: for inhibition at 10 µM: Homo sapiens, M14, read-out: growth inhibition (GI%) and cytotoxicity (negative values)
Excerpt: as §1

[5] = test system: MDA-MB-468 (breast cancer cell line); test: NCI-60 single-dose assay; format: cell-based, human; details: Homo sapiens, MDA-MB-468, read-out: growth inhibition (GI%) and cytotoxicity (negative values)
Excerpt: as §1

[6] = test system: HCC-2998 (colon cancer cell line); test: NCI-60 single-dose assay; format: cell-based, human; details: Homo sapiens, HCC 2998, read-out: growth inhibition (GI%) and cytotoxicity (negative values)
Excerpt: as §1

[7] = test system: SW-620 (colon cancer cell line); test: NCI-60 single-dose assay; format: cell-based, human; details: for inhibition at 10 µM: Homo sapiens, SW-620, read-out: growth inhibition (GI%) and cytotoxicity (negative values)
Excerpt: as §1

[8] = test system: SK-MEL-5 (melanoma cell line); test: NCI-60 single-dose assay; format: cell-based, human; details: human
Excerpt: as §1

[9] = test system: KM12 (colon cancer cell line); test: NCI-60 single-dose assay; format: cell-based, human; details: for inhibition at 10 µM: Homo sapiens, KM12, read-out: growth inhibition (GI%) and cytotoxicity (negative values)
Excerpt: as §1

[10] = test system: UACC-62 (melanoma cell line); test: NCI-60 single-dose assay; format: cell-based, human; details: Homo sapiens, UACC-62, read-out: growth inhibition (GI%) and cytotoxicity (negative values)
Excerpt: as §1

[11] = test system: HCT-116 (colon cancer cell line); test: NCI-60 single-dose assay; format: cell-based, human; details: for inhibition at 10 µM: Homo sapiens, HCT-116, read-out: growth inhibition (GI%) and cytotoxicity (negative values)
Excerpt: as §1

[12] = test system: UACC-257 (melanoma cell line); test: NCI-60 single-dose assay; format: cell-based, human; details: Homo sapiens, UACC-257, read-out: growth inhibition (GI%) and cytotoxicity (negative values)
Excerpt: as §1

[13] = test system: CCRF-CEM (leukemia cell line); test: NCI-60 single-dose assay; format: cell-based, human; details: for inhibition at 10 µM: Homo sapiens, read-out: growth inhibition (GI%) and cytotoxicity (negative values)
Excerpt: as §1

[14] = test system: MOLT-4 (leukemia cell line); test: NCI-60 single-dose assay; format: cell-based, human; details: for inhibition at 10 µM: Homo sapiens, MOLT-4, read-out: growth inhibition (GI%) and cytotoxicity (negative values)
Excerpt: as §1

[15] = test system: LOX IMVI (melanoma cell line); test: NCI-60 single-dose assay; format: cell-based, human; details: LOX IMVI; for inhibition at 10 µM: Homo sapiens, read-out: growth inhibition (GI%) and cytotoxicity (negative values)
Excerpt: as §1

[16] = Cytotoxicity on uninfected Huh-7 cells (WST-8, crystal violet); details: human, uninfected Huh-7 cells
Protocol: The toxicity of the compounds at the same concentration was tested on the same cells in parallel.
Cytotoxic effects were evaluated on uninfected cells using the WST-8 assay (Orangu, Cell Guidance Systems, Cambridge, UK) and the crystal violet assay [23]. […] Huh-7, MDCK, and Vero TMPRSS cells were seeded at 1 × 10^4, 1.5 × 10^4, and 1.2 × 10^4 cells/well, respectively, and incubated for 48 h (Huh-7 and MDCK) or 24 h (VERO TMPRSS), following conditions matching those of the corresponding antiviral assays in terms of timing and culture medium. At the end of incubation, the medium was replaced with a 10% WST-8 solution in DMEM and incubated for 1 h at 37 °C. Optical density (OD) was then measured at 450 nm using a Varioskan LUX plate reader (ThermoFisher Scientific, Milano, Italy). Subsequently, cells were fixed with 4% buffered formalin solution (Merck®, Darmstadt, Germany), stained with 1% crystal violet (Merck®, Darmstadt, Germany), and the dye was solubilized in 30% acetic acid for 30 min under shaking. OD was then measured at 595 nm as an additional readout of cell viability. The percentage of viability at each concentration was calculated using the formula:% viability = 100 × (ODcompound/ODuntreated control) where ODcompound and ODuntreated are the OD of the cells treated with compound or DMSO, respectively.
The CC50 value was determined by nonlinear regression analysis on GraphPad Prism 7 (San Diego, CA, USA).

[17] = test system: K-562 (leukemia cell line); test: NCI-60 single-dose assay; format: cell-based; details: Homo sapiens, K562, read-out: growth inhibition (GI%) and cytotoxicity (negative values)
Excerpt: as §1

[18] = test system: ZIKV, strain Brazil/2016/INMI1; test: ZIKV viral yield reduction assay on Huh-7 cells; format: cell-based, Zika virus
Protocol: We developed a protocol to screen the potential antiviral activity of compounds 1–20 against ZIKV (strain Brazil) on Huh-7 cells, against an H1N1 IAV strain (PR/8/1934) on MDCK cells, and against SARS-CoV-2 (strain Milano) on Vero-TMPRSS. Each compound was tested in duplicate at concentrations of 50 μM, 5 μM, and 0.5 μM. Treatment was applied immediately after infection, and at 24–48 h post-infection, supernatants were collected to assess viral yield, determined as PFU/mL for ZIKV and SARS-CoV-2 or as TCID50/mL for IAV. The test allowed us to evaluate both the antiviral action and the cytotoxicity of each compound, comparing them with reference compounds, such as sofosbuvir for ZIKV and EIDD-1931 for IAV and SARS-CoV-2 (Supplementary Materials, Figures S87–S89).
Viral yield reduction assays for ZIKV and SARS-CoV-2 were performed as previously described by Plicanti. Briefly, 1 × 10^4 Huh-7 cells/well and 1.2 × 10^4 VERO TMPRSS cells/well were infected with ZIKV (MOI 1) or SARS-CoV-2 (MOI 0.05) in a primary 96-well plate for 2 h at 37 °C, 5% CO2. […] Supernatants were collected after 48 h (Huh-7) or 24 h (VERO TMPRSS), diluted 3-fold, and added onto VERO E6 or VERO TMPRSS monolayers, respectively. After 2 h at 37 °C, the inoculum was replaced with 0.75% carboxymethyl cellulose (Merck®, Darmstadt, Germany) in DMEM 2% FBS. After 48–72 h, cells were then fixed with 4% buffered formalin solution (Merck®, Darmstadt, Germany) and stained with 1% crystal violet (Merck®, Darmstadt, Germany). Titres and percentage of inhibition were calculated as follows:
PFU/mL = number of plaques*3^n/vol infection, where n is the dilution where plaques were counted:% inhibition = 100 × (1 − Titre-compound/Titre-untreated control) where Titre-compound and Titre-untreated control are the titres (PFU/mL) obtained on cells treated with compound or DMSO, respectively.
SI was obtained by dividing CC50 by EC50 for each drug/virus/cell line. Compounds with SI values ≥ 10 were active in vitro.

[19] = test system: EKVX (non-small cell lung cancer cell line); test: NCI-60 single-dose assay; format: cell-based, human; details: for inhibition at 10 µM: Homo sapiens, read-out: growth inhibition (GI%) and cytotoxicity (negative values)
Excerpt: as §1

[20] = test system: 786-0 (renal cancer cell line); test: NCI-60 single-dose assay; format: cell-based, human
Excerpt: as §1

[21] = test system: NCI-H460 (non-small cell lung cancer cell line); test: NCI-60 single-dose assay; format: cell-based, human
Excerpt: as §1

[22] = test system: RXF 393 (renal cancer cell line); test: NCI-60 single-dose assay; format: cell-based, human; details: Homo sapiens, RXF 393, read-out: growth inhibition (GI%) and cytotoxicity (negative values)
Excerpt: as §1

NCI-60 cell line panel = test: NCI-60 single-dose assay, whole panel; format: cell-based, human; details: summary over the panel
Excerpt: as §1

[23] = Severe acute respiratory syndrome coronavirus 2, SARS-CoV-2, VERO TMPRSS cells, 24 h, full dose-response, read-out: EC50
[24] = Severe acute respiratory syndrome coronavirus 2, preliminary screening (50, 5, 0.5 μM), Vero TMPRSS, read-out: SARS‐CoV‐2/Vero TMPRSS EC50
[25] = Zika virus, Huh-7, read-out: ZIKV/Huh‐7 EC50
[26] = Zika virus, preliminary screening (50, 5, 0.5 μM), Huh-7, read-out: ZIKV/Huh‐7 EC50

Row | Molecule | selectivity index (SI) ([1]; SARS-CoV-2, VERO TMPRSS cells) | EC50 [1, 23] [µM] | EC50 [1, 24] [µM] | CC50 at 24 h (in vitro) [µM] | inhibition at 10 µM [2] [%] | inhibition at 10 µM [3] [%] | inhibition at 10 µM (M14 (melanoma cell line)) [%] | inhibition at 10 µM [6] [%] | inhibition at 10 µM [7] [%] | growth inhibition (GI%) and cytotoxicity (negative values) [8] [%] | inhibition at 10 µM [9] [%] | inhibition at 10 µM [10] [%] | inhibition at 10 µM [11] [%] | inhibition at 10 µM [12] [%] | inhibition at 10 µM [13] [%] | inhibition at 10 µM [14] [%] | inhibition at 10 µM [15] [%] | CC50 at 48 h [16] [µM] | inhibition at 10 µM [17] [%] | inhibition at 10 µM [19] [%] | also measured
1 | O=C(NCCN1CCN(c2ccc(Cl)cc2)CC1)c1c(Cl)[nH]c2c1CCCc1ccccc1-2 [Compound 13] | 150.00 | 0.66 | > 0.5 | 77.2 | 69.6 | < 60 | < 60 | < 60 | < 60 | −21.64 | < 60 | < 60 | < 60 | < 60 | < 60 | 61.7 | < 60 | 57.9 | 70.9 |  | CC50 (in vitro): 99 µM; inhibition at 10 µM [4]: < 60%; inhibition at 10 µM [5]: 95.3%; selectivity index (SI) ([18]; ZIKV, Huh-7 cells, CC50/EC50): 20.20; EC50 ([18]; Zika virus, Huh-7, 48 h): 3.08 µM; EC50 [18, 25]: 1.3 µM
2 | COc1ccccc1N1CCN(CCNC(=O)c2[nH]c3c(c2Cl)CCCc2ccccc2-3)CC1 [Compound 5] |  |  | 34.9 | 29.4 |  | < 60 |  | < 60 | 67.4 | −62.59 | 67.7 | < 60 | 94.6 | < 60 | 71.6 | 93 | 82.8 | 24.3 | 95.8 | 94.2 | growth inhibition (GI%) and cytotoxicity (negative values) ([2]; human): −8.91%; growth inhibition (GI%) and cytotoxicity (negative values) (M14 (melanoma cell line); human): −22.16%; inhibition at 10 µM ([20]; Homo sapiens, 786-0, read-out: growth inhibition (GI%) and cytotoxicity (negative values)): 63%; inhibition at 10 µM ([21]; Homo sapiens, NCI-H460, read-out: growth inhibition (GI%) and cytotoxicity (negative values)): 79.2%; inhibition at 10 µM [22]: 89.4%; growth inhibition (GI%) reached against cancer cell lines of the NCI-60 panel (NCI-60 cell line panel): > 90%; EC50 [18, 25]: 3.82 µM
3 | O=C(NCCN1CCN(c2ccccc2Cl)CC1)c1c(Cl)[nH]c2c1CCCc1ccccc1-2 [Compound 14] |  |  |  | 36.7 | 71.7 | < 60 | < 60 | < 60 | < 60 | −3.84 | < 60 | < 60 | 66.5 | < 60 | < 60 | < 60 | < 60 | 30.2 | 70.3 | 72.7 | inhibition at 10 µM [4]: < 60%; inhibition at 10 µM [5]: 82.4%; EC50 [18, 26]: 4.74 µM
4 | O=C(NCCN1CCN(c2ccccc2)CC1)c1c(Cl)[nH]c2c1CCCc1ccccc1-2 [Compound 12, 2-Chloro-N-(2-(4-phenylpiperazin-1-yl)ethyl)-1,4,5,6-tetrahydrobenzo[6,7]cyclohepta[1,2-b]pyrrole-3-carboxamide] | 63.63 | 1.17 | 2.26 | 72.8 | 67.2 | < 60 | < 60 | < 60 | < 60 | −7.83 | < 60 | < 60 | 65.8 | < 60 | < 60 | < 60 | < 60 | 34.2 | 70.9 | 72.3 | CC50 (in vitro): 74.5 µM; EC50 [18, 26]: 1.54 µM
5 | N-(3-(4-Benzylpiperazin-1-yl)propyl)-2-chloro-1,4,5,6-tetrahydrobenzo[6,7]cyclohepta[1,2-b]pyrrole-2-carboxamide [Compound 11] |  |  |  |  |  |  |  |  |  |  |  |  |  |  |  |  |  |  |  |  | EC50 ([1]; preliminary screening (50, 5, 0.5 μM), Vero TMPRSS, read-out: SARS‐CoV‐2/Vero TMPRSS EC50): 17.7 µM; growth inhibition (GI%) and cytotoxicity (negative values) ([4]; BT-549, 10^−5 M, single dose): – (GI% values < 60% and no cytotoxicity); growth inhibition (GI%) and cytotoxicity (negative values) ([19]; 10^−5 M, single dose): 70.83%; growth inhibition (GI%) and cytotoxicity (negative values) ([20]; 786-0, 10^−5 M, single dose): 72.88%; growth inhibition (GI%) and cytotoxicity (negative values) ([21]; NCI-H460, 10^−5 M, single dose): 98.58%; growth inhibition (GI%) and cytotoxicity (negative values) ([7]; SW-620, 10^−5 M, single dose): 86.67%; growth inhibition (GI%) and cytotoxicity (negative values) ([9]; KM12, 10^−5 M, single dose): 78.00%; growth inhibition (GI%) and cytotoxicity (negative values) ([11]; HCT-116, 10^−5 M, single dose): 96.84%; growth inhibition (GI%) and cytotoxicity (negative values) ([13]; 10^−5 M, single dose): 76.14%; growth inhibition (GI%) and cytotoxicity (negative values) ([14]; MOLT-4, 10^−5 M, single dose): 99.74%; growth inhibition (GI%) and cytotoxicity (negative values) ([15]; 10^−5 M, single dose): 99.73%; growth inhibition (GI%) reached against cancer cell lines of the NCI-60 panel (NCI-60 cell line panel): > 90%; EC50 ([18]; preliminary screening (50, 5, 0.5 μM), Huh-7, read-out: ZIKV/Huh‐7 EC50): 3.49 µM
